Results reported in patent publication US20240254138A1, “TRICYCLIC PYRIMIDINES AS CYCLIN-DEPENDENT KINASE 7 (CDK7) INHIBITORS” (JANSSEN PHARMACEUTICA NV, priority 2021, published 2024).
Where two headings read alike, the source gives them in different places.

How the values were obtained:
[1] = tested on: RNA Polymerase II Serine 5 phosphorylation (Rpb1 CTD, downstream substrate of CDK7) in A549 cells; test: Imaging-based cellular RNA PolII Ser5 phosphorylation assay in A549 cells; assay type: cell-based, human; details: wild-type CDK7, RNA PolII Ser5 phosphorylation, averaged over all measurements; for IC50: Homo sapiens, A549, A549 cells, read-out: CDK7_A549 Wild-type CDK7 (pIC50) (converted); for CDK7_A549 Wild-type CDK7 (pIC50): A549 cells
In short: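 IC50 derived by fitting % control (DMSO high, 10 μM reference low) against concentration, with Hill slope. Readout: high-content imaging of phospho-Ser5 Rpb1 CTD antibody staining in fixed, permeabilized A549 cells exposed to compound 3 h after 20 h culture in 1% FBS DMEM.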

[2] = tested on: RNA Polymerase II Serine 5 phosphorylation in A549 cells overexpressing CDK7-mutant (C312S); test: Imaging-based cellular RNA PolII Ser5 phosphorylation assay in A549 cells overexpressing CDK7-mutant (C312S); assay type: cell-based, human; details: Homo sapiens, A549, A549 cells overexpressing CDK7-mutant (C312S); RNA PolII Ser5 phosphorylation; averaged over all measurements; read-out: CDK7_A549 mutant hCDK7(pIC50) (converted)
In short: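 Readout was automated imaging of anti-phospho-Ser5 Rpb1 CTD immunofluorescence, with IC50 fitted to % control versus concentration. Cells were A549 stably overexpressing non-covalently targetable CDK7 C312S alongside wild-type, exposed to compound 3 h at 37 °C. DMSO and 10 μM reference compound served as controls.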

[3] = target: CDK7/cyclinH/MAT1 trimeric complex (Homo sapiens, UniProt P50613); test: In vitro CDK7 assay, potency of irreversible covalent inhibitors (kinact/KI), coupled PK/LDH ADP readout at 340 nm
[4] = CDK7 (20 nM enz.) (KI, μM), 20 nM enzyme
[5] = read-out: CDK7 (20 nM enz.) (kinact, s^−1), 20 nM enzyme
[6] = read-out: CDK7 (20 nM enz.) (kinact/KI, M^−1*s^−1), 20 nM enzyme
[7] = read-out: CDK7 (kinact/KI, M^−1*s^−1), potency of irreversible covalent inhibitors, 1 mM ATP, room temperature, averaged values over all measurements
[8] = read-out: CDK7 (20 nM enz.) (kobs/[I], M^−1*s^−1), 20 nM enzyme

Chain of CDK7/cyclinH/MAT1 trimeric complex (P50613 whole entry): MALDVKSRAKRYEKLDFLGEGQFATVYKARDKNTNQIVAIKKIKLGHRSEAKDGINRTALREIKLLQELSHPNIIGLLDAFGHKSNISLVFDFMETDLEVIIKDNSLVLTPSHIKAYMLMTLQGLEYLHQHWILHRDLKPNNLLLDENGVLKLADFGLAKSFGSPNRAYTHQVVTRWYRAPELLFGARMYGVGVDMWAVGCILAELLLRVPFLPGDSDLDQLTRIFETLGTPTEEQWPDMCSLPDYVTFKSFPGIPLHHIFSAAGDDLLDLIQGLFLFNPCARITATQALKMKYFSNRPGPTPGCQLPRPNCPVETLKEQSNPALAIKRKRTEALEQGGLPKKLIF
Chain of CDK7/cyclinH/MAT1 trimeric complex (P51946 whole entry partner): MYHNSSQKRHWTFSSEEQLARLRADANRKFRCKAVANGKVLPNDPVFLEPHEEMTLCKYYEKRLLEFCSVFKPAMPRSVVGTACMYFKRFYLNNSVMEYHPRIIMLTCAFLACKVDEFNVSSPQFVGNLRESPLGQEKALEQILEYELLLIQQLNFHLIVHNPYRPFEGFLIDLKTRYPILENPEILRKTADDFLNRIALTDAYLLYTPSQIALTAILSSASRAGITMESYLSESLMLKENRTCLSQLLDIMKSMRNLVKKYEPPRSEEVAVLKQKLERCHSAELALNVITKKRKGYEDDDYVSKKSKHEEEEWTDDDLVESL
Chain of CDK7/cyclinH/MAT1 trimeric complex (P51948 whole entry partner): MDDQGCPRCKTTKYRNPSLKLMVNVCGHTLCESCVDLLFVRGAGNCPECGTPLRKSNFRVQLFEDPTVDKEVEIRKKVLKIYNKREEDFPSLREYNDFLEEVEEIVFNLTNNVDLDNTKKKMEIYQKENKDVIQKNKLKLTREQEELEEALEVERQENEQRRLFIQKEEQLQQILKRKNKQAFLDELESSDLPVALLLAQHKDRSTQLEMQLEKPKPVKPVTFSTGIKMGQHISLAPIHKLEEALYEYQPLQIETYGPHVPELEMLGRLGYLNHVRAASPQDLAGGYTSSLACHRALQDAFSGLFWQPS

Row | SMILES | IC50 [1] [nM] | IC50 [2] [nM] | Ki [3, 4] [µM] | kinact [3, 5] [s⁻¹] | kinact/KI [3, 6] [M⁻¹ s⁻¹] | Ki ([3]; CDK7 (KI(μM)), […], 1 mM ATP, room temperature, averaged values over all measurements) [µM] | kinact ([3]; read-out: CDK7 (kinact, s^−1), kinact = maximal rate of inactivation, 1 mM ATP, room temperature, averaged values over all measurements) [s⁻¹] | kinact/KI [3, 7] [M⁻¹ s⁻¹] | kinact/KI [3, 8] [M⁻¹ s⁻¹] | CDK7 (20 nM enz.) (kinact/KI, M^−1*s^−1) ([3]; 20 nM enzyme) [M⁻¹ s⁻¹] | CDK7_A549 Wild-type CDK7 (pIC50) [1] | CDK7 (kinact/KI, M^−1*s^−1) ([3]; potency of irreversible covalent inhibitors, 1 mM ATP, room temperature, averaged values over all measurements) [M⁻¹ s⁻¹]
1 | CC#CC(=O)N1CC(N2CC[C@H](c3cc4c(c(C)n3)O[C@@H](C)c3c(N5CCOCC5)ccnc3N4)N(C)CC2)C1 (single isomer, unassigned) [Compound 528] | 603 | > 10000 | 0.0976 | 1.7e-05 | 174 | – | – | – | – | – | – | –
2 | C=CC(=O)N1CC(N2CC(c3cc(C)c4c(c3)Nc3nccc(C5CCOCC5)c3[C@H](C)O4)C2)C1 (single isomer, unassigned) [Compound 252] | 2510 | > 10000 | 25.5 | 0.000306 | 12 | – | – | – | – | – | – | –
3 | CC#CC(=O)N1CCC(N2CC(c3cc4c(c(C(F)(F)F)n3)OCc3c(N5CCOCC5)ccnc3N4)C2)CC1 [Compound 490] | 74.1 | 3310 | – | – | 473 | – | – | – | – | – | – | –
4 | O=C(/C=C/CN1CCOCC1)N1CC(N2CCC(c3ccc4c(c3)Nc3nccc(N5CCOCC5)c3CO4)CC2)C1 [Compound 57] | 1200 | > 3980 | – | – | – | 0.248 | 0.000129 | 518 | – | – | – | –
5 | C=CC(=O)N1CC(N2CCC(c3ccc4c(c3)Nc3nccc(-c5cnn(C)c5)c3C(C)(C)O4)CC2)C1 [Compound 152] | ~67.6 | > 10000 | 0.0242 | 4.68e-05 | 1940 | – | – | – | – | – | – | –
6 | C#Cc1cc(C(=O)Nc2ccc3c(c2)Nc2nccc(C4CCOCC4)c2CO3)ccc1NC(=O)C=C [Compound 18] | 100 | 4270 | – | – | – | – | – | – | 1070 | – | – | –
7 | C=CC(=O)N1CC(N2CC(c3cc4c(c(C)n3)OCc3c(N5CCOCC5)ccnc3N4)C2)C1 [Compound 205] | 93.3 | > 10000 | 0.119 | 4.74e-05 | – | – | – | – | – | 399.588 | – | –
8 | CC#CC(=O)N1CC(N2CC[C@@H](c3cc4c(c(C)n3)O[C@@H](C)c3c(N5CCOCC5)ccnc3N4)C2)C1 (single isomer, unassigned) [Compound 328] | 224 | > 10000 | 0.472 | 2.77e-05 | 58.8 | – | – | – | – | – | – | –
9 | C=CC(=O)N1CCC(N2CC(c3cc4c(c(C)n3)OCc3c(-c5cnn(C)c5)ccnc3N4)C2)CC1 [Compound 170] | 120 | 7760 | 0.125 | 3.7e-05 | 296 | – | – | – | – | – | – | –
10 | C=CC(=O)N1CC(N2CCC(c3ccc4c(c3)Nc3nccc(C5CCOCC5)c3CO4)CC2)C1 [Compound 3] | – | > 10000 | – | – | – | – | – | – | – | – | 6.89 | 2787.5
11 | C=CC(=O)N1CC[C@H]2CN(c3ccc4c(c3)Nc3nccc(N5CCOCC5)c3CO4)CC[C@H]21 (relative stereo) [Compound 27] | 3720 | > 10000 | – | – | – | – | – | 28.7 | – | – | – | –
12 | CC#CC(=O)N1CC(N2CCC(c3cc4c(c(C)n3)O[C@H](C)c3c(N5CCOCC5)ccnc3N4)CC2)C1 (single isomer, unassigned) [Compound 370] | – | > 10000 | 0.112 | 2.32e-05 | – | – | – | – | – | 206.483 | 7.19 | –
13 | Cc1nc(C2CCN([C@H]3CCN(C(=O)/C=C/C(=O)O)C3)CC2)cc2c1OCc1c(-c3cnn(C)c3)ccnc1N2 (single isomer, unassigned) [Compound 332] | 7590 | > 10000 | 4.85 | 2.19e-05 | 4.51 | – | – | – | – | – | – | –
14 | C=CC(=O)N1CCC(N2CC(c3cc4c(c(C5CC5)n3)O[C@@H](C)c3c(N5CCOCC5)ccnc3N4)C2)CC1 (single isomer, unassigned) [Compound 375] | 1290 | > 10000 | 2.12 | 2.58e-05 | 12.2 | – | – | – | – | – | – | –
15 | C=CC(=O)N1CC(N2CCC(c3cc(C#N)c4c(c3)Nc3nccc(C5CCOCC5)c3CO4)CC2)C1 [Compound 125] | 27.5 | 7240 | – | – | – | – | – | – | 1230 | – | – | –
16 | C#CCN(C(=O)C=C)c1ccc(C(=O)Nc2ccc3c(c2)Nc2nccc(C4CCOCC4)c2CO3)cc1 [Compound 17] | 126 | > 10000 | – | – | – | – | – | – | 1470 | – | – | –
17 | CC#CC(=O)N1CC(N2CCC(c3cc4c(c(C)n3)OCc3c(C5CCOCC5)ccnc3N4)CC2)C1 [Compound 410] | 174 | > 10000 | 0.203 | 6.11e-05 | 300 | – | – | – | – | – | – | –
18 | C=CC(=O)N1CC[C@H](N2CC(c3cc4c(c(C(F)(F)F)c3)OCc3c(N5CCOCC5)ccnc3N4)C2)C1 (single isomer, unassigned) [Compound 238] | 40.7 | 3310 | – | – | – | – | – | – | 758 | – | – | –
19 | CC#CC(=O)N1CC[C@@H](N2CC(c3cc(C)c4c(c3)Nc3nccc(N5CCOCC5)c3[C@H](C)O4)C2)C1 (single isomer, unassigned) [Compound 284] | 2040 | > 10000 | 2 | 3.49e-05 | 17.4 | – | – | – | – | – | – | –
20 | CC#CC(=O)N1CCC(N2CCC(c3cc4c(c(C)n3)O[C@H](C)c3c(N5CCOCC5)ccnc3N4)CC2)CC1 (single isomer, unassigned) [Compound 416] | < 9.77 | 1860 | – | – | – | – | – | – | 1750 | – | – | –
21 | C=CC(=O)N1CC(N2CCC(c3cc(C)c4c(c3)Nc3nccc(-c5cnn(C)c5)c3CO4)CC2)C1 [Compound 99] | 44.7 | > 10000 | – | – | – | – | – | – | 1440 | – | – | –
22 | C=CC(=O)N1CC[C@H](N2CC(c3cc(C#N)c4c(c3)Nc3nccc(N5CCOCC5)c3[C@@H](C)O4)C2)C1 (single isomer, unassigned) [Compound 459] | 72.4 | 4370 | – | – | – | – | – | – | 734 | – | – | –
23 | C=CC(=O)N1CCC(N2CCN(c3ccc4c(c3)Nc3nccc(N5CCOCC5)c3CO4)CC2)CC1 [Compound 382] | 204 | > 10000 | 3.26 | 4.7e-05 | 14.4 | – | – | – | – | – | – | –
24 | C=CC(=O)N1CC[C@H](N2CC(c3cc4c(c(C)n3)O[C@H](C)c3c(C5CCOCC5)ccnc3N4)C2)C1 (single isomer, unassigned) [Compound 422] | 115 | > 10000 | 0.0415 | 4.6e-05 | 1110 | – | – | – | – | – | – | –
25 | C=CC(=O)N1CCC(N2CC(c3cc4c(c(C5CC5)n3)O[C@H](C)c3c(N5CCOCC5)ccnc3N4)C2)CC1 (single isomer, unassigned) [Compound 377] | 50.1 | 5750 | 0.0468 | 2.2e-05 | 469 | – | – | – | – | – | – | –
26 | C=CC(=O)N1CC(N2CCC(c3ccc4c(c3)Nc3nccc(C5CCOCC5)c3[C@@H](C)O4)CC2)C1 (single isomer, unassigned) [Compound 97] | 66.1 | > 10000 | 0.0627 | 0.00011 | 1760 | – | – | – | 1510 | – | – | –
27 | CC#CC(=O)N1CCC(N2CCC(c3cc4c(c(C)n3)O[C@@H](C)c3c(N5CCOCC5)ccnc3N4)CC2)CC1 (single isomer, unassigned) [Compound 426] | 63.1 | > 10000 | 0.642 | 4.43e-05 | 69 | – | – | – | – | – | – | –
28 | C=CC(=O)N1CC(N2CCC(c3ccc4c(c3)Nc3nccc(N5CCOCC5)c3[C@H](C)O4)CC2)C1 (single isomer, unassigned) [Compound 92] | 126 | > 10000 | 0.0777 | 4.72e-05 | 622 | – | – | – | – | – | – | –
